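Five concentrations, 48 hours, 96-well plates. The concentration for 50% growth inhibition is given as GI50. The concentration for full growth arrest is given as TGI.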

Results on 13 compounds are retold here after PubChem BioAssay (NCI).

Some test systems named below: COLO 205 colon; IGROV1 ovarian; M14 melanoma; NCI-H522 lung; OVCAR-5 ovarian; SN12C renal; SNB-19 CNS; SR leukemia; LOX IMVI melanoma; HOP-92 NSCLC.
Holding throughout (experiment): growth of human tumour cells (NCI), 48 h

Take `NC1(CCCCCCCCCCC(=O)O)CNCCNCCNCCNC1`: the TGI in the test with COLO 205 colon was more than 100 µM; in the test on IGROV1 ovarian it was more than 100 µM; in the test with M14 melanoma it was more than 100 µM; in the test on NCI-H522 lung it was more than 100 µM; in the test with OVCAR-5 ovarian, 45.6 µM; with SN12C renal, more than 100 µM. For the same compound, the TGI in the test on SNB-19 CNS worked out at 77.6 µM; with SR leukemia, 67.2 µM.

For the compound `C1CN2N3CCCC23C1` (centres undefined), the TGI in the test with COLO 205 colon, with IGROV1 ovarian, in the test with LOX IMVI melanoma, in the test on M14 melanoma, in the test with NCI-H522 lung and in the test with OVCAR-5 ovarian was more than 100 µM each time. Also, the TGI in the test with SN12C renal, in the test on SNB-19 CNS and in the test on SR leukemia was more than 100 µM each time.

As to `Cc1cccc(C(C)(C)C)c1NC(=O)C(=O)Cc1nc2ccccc2s1`, the TGI with COLO 205 colon, with HOP-92 NSCLC, with IGROV1 ovarian, in the test with LOX IMVI melanoma, in the test with M14 melanoma and in the test on NCI-H522 lung was more than 100 µM each time. For the same compound, the TGI in the test with OVCAR-5 ovarian, in the test with SN12C renal and in the test with SNB-19 CNS was more than 100 µM each time.

On to `CCCCCCCCCCCCOC1C(CNCC2OC3OC(C)(C)OC3C2NC(=O)Nc2ccc(C(=O)OCC)cc2)OC2OC(C)(C)OC21` (centres undefined), for which the GI50 in the test on COLO 205 colon was 1.99 µM; in the test with HOP-92 NSCLC, 1.84 µM; in the test with IGROV1 ovarian it was 2.7 µM; in the test with LOX IMVI melanoma, 1.99 µM; in the test with M14 melanoma, 1.77 µM; in the test on NCI-H522 lung, 2.04 µM. In addition, the GI50 with OVCAR-5 ovarian was 4.18 µM; with SN12C renal, 1.96 µM; in the test with SNB-19 CNS, 13.7 µM. The TGI in the test with COLO 205 colon is 3.76 µM; in the test with HOP-92 NSCLC, 3.92 µM; in the test with IGROV1 ovarian, 7.37 µM; in the test with LOX IMVI melanoma, 3.92 µM; with M14 melanoma, 3.38 µM; in the test with NCI-H522 lung, 3.78 µM. Further, the values for the TGI with OVCAR-5 ovarian, in the test with SN12C renal and in the test on SNB-19 CNS were 17 µM, 3.74 µM and 27.7 µM, respectively.

Turning to `NNC(=O)c1cnn(-c2ccnc3c(C(F)(F)F)cccc23)c1N`, the GI50 was more than 100 µM with COLO 205 colon; 82.1 µM with HOP-92 NSCLC; more than 100 µM in the test with IGROV1 ovarian; more than 100 µM in the test with LOX IMVI melanoma; more than 100 µM in the test on NCI-H522 lung; more than 100 µM with OVCAR-5 ovarian. Besides, the GI50 in the test on SN12C renal and in the test with SNB-19 CNS was more than 100 µM throughout. For the same compound, the TGI in the test with COLO 205 colon, with HOP-92 NSCLC, in the test with IGROV1 ovarian, in the test with LOX IMVI melanoma, in the test with NCI-H522 lung and in the test on OVCAR-5 ovarian was more than 100 µM in each case. Also, the TGI in the test on SN12C renal and in the test on SNB-19 CNS was more than 100 µM in each case.

Regarding `O=C1CC[C@H]2CNC(=O)C[C@H]2C1`, the TGI in the test on COLO 205 colon, in the test with HOP-92 NSCLC, in the test with IGROV1 ovarian, in the test with LOX IMVI melanoma, in the test on M14 melanoma and in the test with NCI-H522 lung was more than 100 µM throughout. The TGI in the test on SN12C renal and in the test on SNB-19 CNS was more than 100 µM in each case.

`CC1=C(CCCOC(=O)NCCCl)C2=C(C)C3(CC3)[C@@](C)(O)C(=O)C2=C1`: the GI50 was 2.06 µM in the test on COLO 205 colon; 2.87 µM in the test with HOP-92 NSCLC; 1.77 µM in the test with IGROV1 ovarian; 3.13 µM with LOX IMVI melanoma; 2.46 µM in the test on M14 melanoma; 3.99 µM in the test on NCI-H522 lung. The GI50 in the test with OVCAR-5 ovarian was 3.13 µM; in the test on SN12C renal it was 3.84 µM; with SNB-19 CNS, 3.83 µM. Also, the TGI with COLO 205 colon came out at 6.65 µM; in the test on HOP-92 NSCLC, 8.24 µM; in the test on IGROV1 ovarian, 17.6 µM; in the test on LOX IMVI melanoma it was 19.8 µM; in the test on M14 melanoma it was 8.58 µM; in the test with NCI-H522 lung it was 21.4 µM. Besides, the TGI in the test with OVCAR-5 ovarian, in the test with SN12C renal and in the test on SNB-19 CNS was more than 100 µM each time.

Consider `C[C@]12CCC(=O)C=C1CC[C@@H]1C2CC[C@]2(C)NC(=O)C(C#N)CC12` (some centres undefined), for which the TGI in the test on IGROV1 ovarian, with M14 melanoma and in the test on OVCAR-5 ovarian was more than 100 µM each time.

For the compound `COC(=O)c1c(OC)cccc1C(=O)O`, the TGI in the test with COLO 205 colon, in the test on IGROV1 ovarian, with M14 melanoma, in the test with NCI-H522 lung, with OVCAR-5 ovarian and in the test on SN12C renal was more than 100 µM each time. Besides, in the test on SNB-19 CNS, the TGI is more than 100 µM.

Take `CC1=CCCC(OC(N)=O)C1` (centres undefined): the TGI in the test with COLO 205 colon, in the test with HOP-92 NSCLC, in the test on IGROV1 ovarian, in the test with LOX IMVI melanoma, in the test on M14 melanoma and in the test on OVCAR-5 ovarian was more than 100 µM each time. Besides, the TGI in the test on SN12C renal and in the test with SNB-19 CNS was more than 100 µM in each case.

Take `c1ccc(-c2nnc(-c3nn(-c4ccccc4)c4nc5ccccc5nc34)o2)cc1`: the TGI with COLO 205 colon, in the test with IGROV1 ovarian, in the test with LOX IMVI melanoma, in the test with M14 melanoma, in the test on NCI-H522 lung and in the test on OVCAR-5 ovarian was more than 100 µM each time. The TGI in the test on SN12C renal and with SNB-19 CNS was more than 100 µM throughout.

In the case of `O=C(O)/C=C/C(=O)Nc1ncn[nH]1`, the TGI in the test on COLO 205 colon, in the test on HOP-92 NSCLC, in the test on IGROV1 ovarian, with LOX IMVI melanoma, in the test on M14 melanoma and with NCI-H522 lung was more than 100 µM each time. In addition, the TGI with OVCAR-5 ovarian, in the test on SN12C renal and in the test on SNB-19 CNS was more than 100 µM throughout.

In the case of `COc1ccc(N=Cc2cc(OC)c(OC)c(OC)c2)cc1`, the TGI with HOP-92 NSCLC, with IGROV1 ovarian, with LOX IMVI melanoma, in the test on NCI-H522 lung, with OVCAR-5 ovarian and with SN12C renal was more than 100 µM in each case. The compound further came in with a TGI in the test on SNB-19 CNS of more than 100 µM. Moreover, the GI50 in the test with NCI-H522 lung was more than 100 µM.
